Assay results as given in PubChem BioAssay AID256 (DTP/NCI, 2004).
Values joined by “and” are separate entries in the source; they are usually repeats but may differ in a detail not shown here. Identical values can stand only once. Toxic doses and inconclusive results are not listed. How the source made its calls: active means survival T/C of 150% or more; inactive means T/C below 125% in these data.

Tested on: CD2F1 mice, L1210 leukemia ip, survival T/C
Experiment: NCI In Vivo Anticancer Drug Screen. Data for tumor model L1210 Leukemia (intraperitoneal) in CD2F1 (CDF1) mice
Conditions: endpoint: mean survival time, higher = longer survival
In short: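 Each value reflects a quotient of treated over vehicle control outcomes in mice with a transplanted tumor.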

[1] = dose: 100.0 mg/kg/injection, schedule: Q04DX002 (ip), vehicle: saline with Tween-80
[2] = dose: 200.0 mg/kg/injection, schedule: Q04DX002 (ip), vehicle: saline with Tween-80
[3] = dose: 100.0 mg/kg/injection, schedule: Q01DX001 (ip), vehicle: saline with Tween-80
[4] = dose: 200.0 mg/kg/injection, schedule: Q01DX001 (ip), vehicle: saline with Tween-80
[5] = dose: 400.0 mg/kg/injection, schedule: Q01DX001 (ip), vehicle: saline with Tween-80
[6] = dose: 100.0 mg/kg/injection, schedule: Q01DX009 (ip), vehicle: saline with Tween-80
[7] = dose: 200.0 mg/kg/injection, schedule: Q01DX009 (ip), vehicle: saline with Tween-80
[8] = dose: 400.0 mg/kg/injection, schedule: Q01DX009 (ip), vehicle: saline with Tween-80
[9] = dose: 100.0 mg/kg/injection, schedule: Q04DX003 (ip), vehicle: saline with Tween-80
[10] = dose: 200.0 mg/kg/injection, schedule: Q04DX003 (ip), vehicle: saline with Tween-80
[11] = dose: 400.0 mg/kg/injection, schedule: Q04DX003 (ip), vehicle: saline with Tween-80
[12] = dose: 50.0 mg/kg/injection, schedule: Q04DX002 (ip), vehicle: saline with Tween-80
[13] = dose: 100.0 mg/kg/injection, schedule: Q01DX001 (ip), vehicle: saline
[14] = dose: 200.0 mg/kg/injection, schedule: Q01DX001 (ip), vehicle: saline
[15] = dose: 400.0 mg/kg/injection, schedule: Q01DX001 (ip), vehicle: saline

Measured: T/C

CCCCNC(=O)c1ccc2c(c1)C(=O)N(CCCC)C2=O
inactive: [1] 101 % of control | [2] 104 % of control | dose: 400.0 mg/kg/injection, schedule: Q04DX002 (ip), vehicle: saline with Tween-80 93 % of control

CCCCCCCCCCCCCCCCCCC(C)c1ccccc1 (stereo not given)
inactive: [3] 101 % of control | [4] 97 % of control | [5] 101 % of control

Cc1ccc(NS(=O)(=O)c2ccc([N+](=O)[O-])cc2)cc1
inactive: [6] 93 % of control | [7] 98 % of control | [8] 105 % of control

COc1ccc(C(=O)/C=C/c2ccc(N(C)C)cc2)cc1
inactive: dose: 75.0 mg/kg/injection, schedule: Q01DX001 (ip), vehicle: saline 95 % of control | dose: 150.0 mg/kg/injection, schedule: Q01DX001 (ip), vehicle: saline 93 % of control

Clc1ccc(CN2CN(Cc3ccc(Cl)cc3)CN(Cc3ccc(Cl)cc3)C2)cc1
inactive: [6] 95 % of control | [9] 100 % of control | [7] 97 % of control | [10] 97 % of control | [8] 100 % of control | [11] 97 % of control

CC(C)(C)C1CCC(=O)C1 (stereo not given)
inactive: dose: 12.5 mg/kg/injection, schedule: Q01DX009 (ip), vehicle: saline with Tween-80 87 % of control | dose: 25.0 mg/kg/injection, schedule: Q01DX009 (ip), vehicle: saline with Tween-80 95 % of control

S=c1[nH]nc(Nc2ccccc2Cl)s1
inactive: dose: 100.0 mg/kg/injection, schedule: Q04DX003 (ip), vehicle: Klucel (hydroxypropylcellulose) (HPC) 95 % of control | dose: 200.0 mg/kg/injection, schedule: Q04DX003 (ip), vehicle: Klucel (hydroxypropylcellulose) (HPC) 95 % of control | dose: 400.0 mg/kg/injection, schedule: Q04DX003 (ip), vehicle: Klucel (hydroxypropylcellulose) (HPC) 95 % of control

C=C1C2CCC3C2C(C)(C)CCCC13C (stereo not given)
inactive: dose: 100.0 mg/kg/injection, schedule: Q01DX009 (ip), vehicle: saline 98 % of control | [9] 103 % of control | dose: 200.0 mg/kg/injection, schedule: Q01DX009 (ip), vehicle: saline 97 % of control | [10] 104 % of control | dose: 400.0 mg/kg/injection, schedule: Q01DX009 (ip), vehicle: saline 101 % of control | [11] 93 % of control

COCCC1(CN2c3ccccc3Sc3ccccc32)CCN(C)C1 (stereo not given)
inactive: dose: 100.0 mg/kg/injection, schedule: Q04DX003 (ip), vehicle: saline 94 % of control | dose: 200.0 mg/kg/injection, schedule: Q04DX003 (ip), vehicle: saline 96 % of control

COC1=CC23CCCN2CCc2cc4c(cc2C3C1O)OCO4 (stereo not given)
inactive: dose: 12.5 mg/kg/injection, schedule: Q01DX009 (ip), vehicle: water 97 % of control | dose: 25.0 mg/kg/injection, schedule: Q01DX009 (ip), vehicle: water 101 % of control | dose: 50.0 mg/kg/injection, schedule: Q01DX009 (ip), vehicle: water 100 % of control | dose: 100.0 mg/kg/injection, schedule: Q01DX009 (ip), vehicle: water 95 % of control | dose: 200.0 mg/kg/injection, schedule: Q01DX009 (ip), vehicle: water 97 % of control

CCCCCC(=O)SCC(=O)OCC(=O)[C@]1(O)Cc2c(O)c3c(c(O)c2[C@@H](OC2CC(N)C(O)C(C)O2)C1)C(=O)c1c(OC)cccc1C3=O (stereo not given in full)
inactive: dose: 0.39 mg/kg/injection, schedule: Q01DX005 (ip), vehicle: water 115 % of control and 110 % of control | dose: 0.78 mg/kg/injection, schedule: Q01DX005 (ip), vehicle: water 116 % of control and 124 % of control | dose: 1.56 mg/kg/injection, schedule: Q01DX005 (ip), vehicle: water 118 % of control | dose: 6.25 mg/kg/injection, schedule: Q01DX005 (ip), vehicle: water 104 % of control

CN1C(=O)CCSC1=S
inactive: dose: 25.0 mg/kg/injection, schedule: Q04DX002 (ip), vehicle: saline with Tween-80 94 % of control | [12] 105 % of control | [1] 105 % of control

OCCOc1ccc2ccccc2c1
inactive: [3] 100 % of control | dose: 100.0 mg/kg/injection, schedule: Q04DX003 (ip), vehicle: saline + alcohol 97 % of control | [4] 108 % of control | dose: 200.0 mg/kg/injection, schedule: Q04DX003 (ip), vehicle: saline + alcohol 95 % of control | [5] 103 % of control | dose: 400.0 mg/kg/injection, schedule: Q04DX003 (ip), vehicle: saline + alcohol 91 % of control

COc1ccc(NC(=O)C(c2ccccc2)c2ccccc2)cc1
inactive: [6] 105 % of control | [7] 102 % of control | [8] 92 % of control

CCOC(=O)C1CC2(CC(C(N)=O)C2)C1 (stereo not given)
inactive: [13] 103 % of control | [14] 100 % of control | [15] 93 % of control

NCCOc1ccc(-n2cnc3c(=O)[nH]c(N)nc32)cc1
inactive: [12] 93 % of control | [1] 96 % of control | [2] 104 % of control

Oc1cc(O)c2c(c1)O[C@H](c1ccc(O)c(O)c1)[C@@H](O)C2
inactive: [13] 101 % of control | [14] 101 % of control | [15] 98 % of control
